This note sets out measurements from patent US9732050B2, “Modulators of sperm hypermotility and uses thereof” (HYDRA BIOSCIENCES, INC., priority 2005, dated 2017).

In this test the target is T1, Mouse CatSper1 currents (Mus musculus, UniProt Q91ZR5).
T1 construct: Spermatozoa from corpus epididymis were used because the CD of such cells was less fragile; from tissue; host or cells: mouse spermatozoa from corpus epididymis
Briefly: Inhibition of mouse CatSper1 currents in electrophysiological recordings. Type of test: cell-based. On the procedure: Compound (II) was tested for its effects on sperm hyperactivation using a single-sperm motility assay as described in Kirichok Y, Navarro B, Clapham D E. “Whole-cell patch-clamp measurements of spermatozoa reveal an alkaline-activated Ca2+ channel”. Nature. 2006; 439(7077):737-40. Mouse sperm was prepared as described in Kirichok.
The patch pipette was applied to the sperm cell cytoplasmic droplet (CD). Spermatozoa from corpus epididymis were used because the CD of such cells was less fragile. The most mature spermatozoa, those with the CD located next to the principal piece, were chosen for experiments. Pipette resistance with Cs-Methanesulfonate-based solutions was 6-13 MΩ. Access resistance in the whole-cell configuration was 25-120 MS). The pipette solution (in mM) was as follows: 140 Cs-Methanesulfonate, 5 NaCl, 10 HEPES, 10 EGTA, pH 7.2 (pH adjusted with CsOH).
Seals between the patch pipette and the cytoplasmic droplet were formed in HS bath solution (Kirichok Y, Navarro B, Clapham D E. Whole-cell patch-clamp measurements of spermatozoa reveal an alkaline-activated Ca2+ channel. Nature. 2006 Feb. 9; 439(7077):737-40). After break-in, the bath solution was changed to recording solution: 150 NaGluconate, 10 HEPES, 2Na3HEDTA and 2 EGTA, pH 7.4 (pH adjusted with NaOH). CaCl2 was added to the solution in accordance with the WinMAXC v2.05 program (C. Patton, Stanford University) to yield ˜[…] free [Ca2+].
A 20 micromolar solution of compound (II), i.e. 3,4-bis(2-thienylcarbonyl)-1,2,5-oxadiazole-2-ium-2-olate, was prepared from a 100 mM DMSO stock in the recording solution described above. Osmolarity of the solutions was approximately 303 mmol kg-1.
The membrane potential was held at 0 mV. Every 5 seconds CatSper currents were monitored by application of a voltage ramp from −100 mV to +100 mV over the course of 400 milliseconds. Following break-in, cells were monitored until a steady state level of CatSper current (plotted at +80 mV) was observed. […] Steady state block was monitored for 5-6 sweeps. […] Series resistance was monitored throughout the recordings.

With `O=C(c1cccs1)c1no[n+]([O-])c1C(=O)c1cccs1` [Compound (II), 3,4-bis(2-thienylcarbonyl)-1,2,5-oxadiazole-2-ium-2-olate], the “block of CatSper current” value (20 micromolar, current plotted at +80 mV, mouse spermatozoa from corpus epididymis) is “steady state block was achieved”. In addition, under “20 micromolar, voltage ramp every 5 seconds”, the “sweeps until steady state block” value is given as 2-3 sweeps. Besides, the “CatSper current following removal of the compound” value (washout after 20 micromolar) is “returned rapidly to unblocked levels”.
